In experiment [1] the test system is KURAMOCHI
As to the kind of experiment: drug sensitivity score (DSS2) on cancer cell count; higher = more sensitive; extreme values may be limits of the assay. As to conditions: 72 h. The gist of the method: (§1)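 Ovarian cancer cells were grown alone or in 1:1 direct co-culture with lung or skin fibroblasts. They were plated onto 384-well plates pre-spotted acoustically with 528 approved and investigational compounds at 5 concentrations, then treated for 72 h. Cells were fixed, immunostained for CK8/18 with Hoechst, and imaged at 10× (4 fields) to count cancer cells. A drug sensitivity score (DSS2) was derived in Breeze from 4-parameter logistic fits, with screen quality checked by Z'.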

For experiment [2], the system named is OVCAR8. Described as above. Conditions: 72 h. In short, it runs like this:
as §1

[3] abbreviates: co-cultured fibroblast: BJHTERT.
The mark [4] stands for this setting: co-cultured fibroblast: none (monoculture).

Each structure is given as a SMILES string.

With `C/C(=C\c1csc(C)n1)[C@@H]1C[C@@H]2O[C@]2(C)CCC[C@H](C)[C@H](O)[C@@H](C)C(=O)C(C)(C)[C@@H](O)CC(=O)N1` [Ixabepilone], the drug sensitivity score in experiment [1] (setting [3]) came to 4.9 DSS; in experiment [1] (co-cultured fibroblast: WI38), 4.6 DSS; in experiment [1] (setting [4]), 0.8 DSS; in experiment [2] (setting [3]) it was 5.8 DSS; in experiment [2] (co-cultured fibroblast: WI38) it was 5.6 DSS; in experiment [2] (setting [4]) it was 3.6 DSS.

For `CCS(=O)(=O)N1CC(CC#N)(n2cc(-c3ncnc4[nH]ccc34)cn2)C1` [Baricitinib], the drug sensitivity score was 0 DSS in experiment [1] (setting [3]); 0 DSS in experiment [1] (co-cultured fibroblast: WI38); 0 DSS in experiment [1] (setting [4]); 0 DSS in experiment [2] (setting [3]); 1.1 DSS in experiment [2] (co-cultured fibroblast: WI38); 0 DSS in experiment [2] (setting [4]).

Consider `COc1nc(N)nc2c1ncn2[C@@H]1O[C@H](CO)[C@@H](O)[C@@H]1O` [Nelarabine], for which the drug sensitivity score in experiment [1] (setting [3]) came out at 0 DSS; in experiment [1] (co-cultured fibroblast: WI38), 0 DSS; in experiment [1] (setting [4]) it was 0 DSS; in experiment [2] (setting [3]), 1 DSS; in experiment [2] (co-cultured fibroblast: WI38), 3.4 DSS; in experiment [2] (setting [4]), 0.3 DSS.

With `CC(C)Oc1ccc(C(=O)N[C@H](CNC(=O)CN(C)C)Cc2ccc(-c3cn4cccc([C@H](C)O)c4n3)cc2)cc1Cl`, the drug sensitivity score came out at 18.1 DSS in experiment [1] (setting [3]); 22.6 DSS in experiment [1] (co-cultured fibroblast: WI38); 22.8 DSS in experiment [1] (setting [4]); 18.3 DSS in experiment [2] (setting [3]); 14.2 DSS in experiment [2] (co-cultured fibroblast: WI38); 16.6 DSS in experiment [2] (setting [4]).

In the case of `COc1ccc(-c2ccc3ncc4c(c3c2)n(-c2ccc(N3CCNCC3)c(C(F)(F)F)c2)c(=O)n4C)cn1` [NVP-BGT226], the drug sensitivity score in experiment [1] (setting [3]) amounted to 18.2 DSS; in experiment [1] (co-cultured fibroblast: WI38), 19.5 DSS; in experiment [1] (setting [4]), 18.3 DSS; in experiment [2] (setting [3]), 19.5 DSS; in experiment [2] (co-cultured fibroblast: WI38), 12 DSS; in experiment [2] (setting [4]) it was 21.7 DSS.

For the molecule `CCn1c(=O)c(-c2ccc(Cl)cc2Cl)cc2cnc(Nc3ccc(N4CCNCC4)c(F)c3)nc21` [FRAX486], the drug sensitivity score was determined as 9.7 DSS in experiment [1] (setting [3]); 4.9 DSS in experiment [1] (co-cultured fibroblast: WI38); 9.2 DSS in experiment [1] (setting [4]); 5.8 DSS in experiment [2] (setting [3]); 9.8 DSS in experiment [2] (co-cultured fibroblast: WI38); 13.1 DSS in experiment [2] (setting [4]).

Turning to `CN1CCN(C(=O)c2ccc3cc(CCNc4ncnc5ccc(C#N)cc45)ccc3c2)CC1` [Senexin B], the drug sensitivity score in experiment [1] (setting [3]) worked out at 1.1 DSS; in experiment [1] (co-cultured fibroblast: WI38), 1.6 DSS; in experiment [1] (setting [4]), 1 DSS; in experiment [2] (setting [3]), 1.1 DSS; in experiment [2] (co-cultured fibroblast: WI38) it was 0 DSS; in experiment [2] (setting [4]), 0.1 DSS.

With `CC(C)C[C@H](NC(=O)CNC(=O)c1cc(Cl)ccc1Cl)B(O)O` [Ixazomib], the drug sensitivity score came out at 1 DSS in experiment [1] (setting [3]); 11.6 DSS in experiment [1] (co-cultured fibroblast: WI38); 7.6 DSS in experiment [1] (setting [4]); 1.8 DSS in experiment [2] (setting [3]); 8.7 DSS in experiment [2] (co-cultured fibroblast: WI38); 11.3 DSS in experiment [2] (setting [4]).

`C[C@]12CC[C@H](O)CC1=CC[C@@H]1[C@@H]2CC[C@]2(C)C(c3cccnc3)=CC[C@@H]12` [Abiraterone]: the drug sensitivity score in experiment [1] (setting [3]), in experiment [1] (co-cultured fibroblast: WI38), in experiment [1] (setting [4]), in experiment [2] (setting [3]), in experiment [2] (co-cultured fibroblast: WI38) and in experiment [2] (setting [4]) was 0 DSS throughout.

For `COc1cc(OC)c(/C=C/S(=O)(=O)Cc2ccc(OC)c(NCC(=O)O)c2)c(OC)c1` [Rigosertib], the drug sensitivity score in experiment [1] (setting [3]) was found to be 24 DSS; in experiment [1] (co-cultured fibroblast: WI38), 24.1 DSS; in experiment [1] (setting [4]) it was 28.8 DSS; in experiment [2] (setting [3]) it was 27.7 DSS; in experiment [2] (co-cultured fibroblast: WI38), 28.9 DSS; in experiment [2] (setting [4]), 30.4 DSS.

With `O=c1[nH]c(C2CCCN2)nc2c1oc1ccc(Cl)cc12` (stereo not given), the drug sensitivity score in experiment [1] (setting [3]) is 2.2 DSS; in experiment [1] (co-cultured fibroblast: WI38), 5.4 DSS; in experiment [1] (setting [4]) it was 4.1 DSS; in experiment [2] (setting [3]), 4.4 DSS; in experiment [2] (co-cultured fibroblast: WI38), 1.8 DSS; in experiment [2] (setting [4]), 2.8 DSS.

With `Clc1ccc(Nc2nnc(Cc3ccncc3)c3ccccc23)cc1` [Vatalanib], the drug sensitivity score came to 0 DSS in experiment [1] (setting [3]); 0.7 DSS in experiment [1] (co-cultured fibroblast: WI38); 0 DSS in experiment [1] (setting [4]); 0.2 DSS in experiment [2] (setting [3]); 0 DSS in experiment [2] (co-cultured fibroblast: WI38); 0 DSS in experiment [2] (setting [4]).

Turning to `CC(C)[C@H]1C(=O)N[C@@H](CCCNC(=N)N)C(=O)NCC(=O)N[C@@H](CC(=O)O)C(=O)N[C@H](Cc2ccccc2)C(=O)N1C` [Cilengitide], the drug sensitivity score was 5.8 DSS in experiment [1] (setting [3]); 3.3 DSS in experiment [1] (co-cultured fibroblast: WI38); 7.4 DSS in experiment [1] (setting [4]); 9.6 DSS in experiment [2] (setting [3]); 16.3 DSS in experiment [2] (co-cultured fibroblast: WI38); 13.2 DSS in experiment [2] (setting [4]).

With `Nc1nc2[nH]cnc2c(=S)[nH]1` [Thioguanine], the drug sensitivity score in experiment [1] (setting [3]) was found to be 5.3 DSS; in experiment [1] (co-cultured fibroblast: WI38), 5.7 DSS; in experiment [1] (setting [4]) it was 7.7 DSS; in experiment [2] (setting [3]), 4.8 DSS; in experiment [2] (co-cultured fibroblast: WI38), 7.3 DSS; in experiment [2] (setting [4]), 13.6 DSS.

As for `C=CC(=O)Nc1cccc(Oc2nc(Nc3ccc(N4CCN(C)CC4)cc3)nc3ccsc23)c1` [Olmutinib], the drug sensitivity score worked out at 2.1 DSS in experiment [1] (setting [3]); 2.7 DSS in experiment [1] (co-cultured fibroblast: WI38); 0 DSS in experiment [1] (setting [4]); 0 DSS in experiment [2] (setting [3]); 0 DSS in experiment [2] (co-cultured fibroblast: WI38); 0 DSS in experiment [2] (setting [4]).

For the molecule `Cc1c(-c2c(-c3ccc(F)o3)sc3ncnc(O[C@H](Cc4ccccc4OCc4ccnn4CC(F)(F)F)C(=O)O)c23)ccc(OCCN2CCN(C)CC2)c1Cl`, the drug sensitivity score in experiment [1] (setting [3]), in experiment [1] (co-cultured fibroblast: WI38), in experiment [1] (setting [4]), in experiment [2] (setting [3]), in experiment [2] (co-cultured fibroblast: WI38) and in experiment [2] (setting [4]) was 0 DSS in each case.

With `CS(=O)(=O)N1CCN(Cc2cc3nc(-c4cccc5[nH]ncc45)nc(N4CCOCC4)c3s2)CC1` [Pictilisib], the drug sensitivity score in experiment [1] (setting [3]) amounted to 15 DSS; in experiment [1] (co-cultured fibroblast: WI38), 12.1 DSS; in experiment [1] (setting [4]) it was 18.2 DSS; in experiment [2] (setting [3]) it was 6.7 DSS; in experiment [2] (co-cultured fibroblast: WI38) it was 5.4 DSS; in experiment [2] (setting [4]), 7.9 DSS.

Take `CC(=O)O[C@H]1C(=O)[C@@]2(C)[C@H]([C@H](OC(=O)c3ccccc3)[C@]3(O)C[C@H](OC(=O)[C@H](O)[C@@H](NC(=O)c4ccccc4)c4ccccc4)C(C)=C1C3(C)C)[C@]1(OC(C)=O)CO[C@@H]1C[C@@H]2O` [Paclitaxel]: the drug sensitivity score was 23.2 DSS in experiment [1] (setting [3]); 24.5 DSS in experiment [1] (co-cultured fibroblast: WI38); 16.1 DSS in experiment [1] (setting [4]); 29.6 DSS in experiment [2] (setting [3]); 30.9 DSS in experiment [2] (co-cultured fibroblast: WI38); 24 DSS in experiment [2] (setting [4]).

Regarding `CC[C@@H]1C(=O)N(C)c2cnc(Nc3ccc(C(=O)NC4CCN(C)CC4)cc3OC)nc2N1C1CCCC1` [BI 2536], the drug sensitivity score in experiment [1] (setting [3]) was 21.7 DSS; in experiment [1] (co-cultured fibroblast: WI38) it was 25.7 DSS; in experiment [1] (setting [4]) it was 21.1 DSS; in experiment [2] (setting [3]), 29.5 DSS; in experiment [2] (co-cultured fibroblast: WI38), 25.6 DSS; in experiment [2] (setting [4]), 29.1 DSS.

With `CN(C)C(=O)c1cc2cnc(Nc3ccc(N4CCNCC4)cn3)nc2n1C1CCCC1` [Ribociclib], the drug sensitivity score came to 0 DSS in experiment [1] (setting [3]); 3.9 DSS in experiment [1] (co-cultured fibroblast: WI38); 5.2 DSS in experiment [1] (setting [4]); 3.9 DSS in experiment [2] (setting [3]); 0 DSS in experiment [2] (co-cultured fibroblast: WI38); 0 DSS in experiment [2] (setting [4]).

For the molecule `CC(C)NC[C@@H](C(=O)N1CCN(c2ncnc3c2[C@H](C)C[C@H]3O)CC1)c1ccc(Cl)cc1` [Ipatasertib], the drug sensitivity score in experiment [1] (setting [3]) worked out at 1.5 DSS; in experiment [1] (co-cultured fibroblast: WI38), 0.5 DSS; in experiment [1] (setting [4]), 0 DSS; in experiment [2] (setting [3]), 1.9 DSS; in experiment [2] (co-cultured fibroblast: WI38), 0 DSS; in experiment [2] (setting [4]), 1.9 DSS.

For the molecule `Cc1ccc(NS(=O)(=O)c2cccc(C#N)c2)c2[nH]cc(C#N)c12` [E7820], the drug sensitivity score in experiment [1] (setting [3]) worked out at 6.5 DSS; in experiment [1] (co-cultured fibroblast: WI38) it was 9.7 DSS; in experiment [1] (setting [4]), 15.8 DSS; in experiment [2] (setting [3]) it was 5.4 DSS; in experiment [2] (co-cultured fibroblast: WI38), 0 DSS; in experiment [2] (setting [4]), 12.8 DSS.

As to `CCCC(CCC)C(=O)O` [Valproic acid], the drug sensitivity score in experiment [1] (setting [3]), in experiment [1] (co-cultured fibroblast: WI38), in experiment [1] (setting [4]), in experiment [2] (setting [3]), in experiment [2] (co-cultured fibroblast: WI38) and in experiment [2] (setting [4]) was 0 DSS in each case.

As for `Cc1c(Cn2c(C)nc3c(C(=O)O)cc(N4CCOCC4)cc32)cccc1C(F)(F)F`, the drug sensitivity score in experiment [1] (setting [3]) was 5.5 DSS; in experiment [1] (co-cultured fibroblast: WI38), 0.3 DSS; in experiment [1] (setting [4]), 6.9 DSS; in experiment [2] (setting [3]), 3.7 DSS; in experiment [2] (co-cultured fibroblast: WI38) it was 0 DSS; in experiment [2] (setting [4]), 0 DSS.

Turning to `NS(=O)(=O)NCCNc1nonc1/C(=N/O)Nc1ccc(F)c(Br)c1` [Epacadostat], the drug sensitivity score was found to be 0 DSS in experiment [1] (setting [3]); 0 DSS in experiment [1] (co-cultured fibroblast: WI38); 0 DSS in experiment [1] (setting [4]); 0 DSS in experiment [2] (setting [3]); 0 DSS in experiment [2] (co-cultured fibroblast: WI38); 0.6 DSS in experiment [2] (setting [4]).

These data come from the supplement of paper PMC12420376.
